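Exposure lasted 48 hours, with cells grown in 96-well plates and compounds tested at five concentrations. TGI is the concentration that stops growth completely.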
Key:
Assay in all cases: inhibition of tumour cell growth, NCI panel, 48 h
[1] = test system: A498 renal
[2] = test system: SW-620 colon
[3] = test system: SNB-75 CNS
[4] = test system: ACHN renal
[5] = test system: OVCAR-5 ovarian
[6] = test system: MDA-N
[7] = test system: NCI-H23 lung
[8] = test system: SN12C renal
[9] = test system: RXF 393 renal
[10] = test system: SK-MEL-28 melanoma
[11] = test system: UACC-257 melanoma
[12] = test system: HS 578T breast
[13] = test system: MCF7 breast
[14] = test system: BT-549 breast
[15] = test system: T-47D breast
[16] = test system: HOP-92 NSCLC
[17] = test system: SF-295 CNS
[18] = test system: RPMI-8226 leukemia
[19] = test system: OVCAR-3 ovarian
[20] = test system: SF-268 CNS
[21] = test system: CAKI-1 renal
[22] = test system: SR leukemia
[23] = test system: DU-145 prostate
[24] = test system: SF-539 CNS
[25] = test system: M14 melanoma
[26] = test system: SNB-19 CNS
[27] = test system: HCT-15 colon
[28] = test system: 786-0 renal
[29] = test system: MOLT-4 leukemia
[30] = test system: NCI-H460 lung
[31] = test system: SK-OV-3 ovarian
[32] = test system: MDA-MB-231 breast
[33] = test system: A549 NSCLC
[34] = test system: UO-31 renal
[35] = test system: IGROV1 ovarian
[36] = test system: CCRF-CEM leukemia
[37] = test system: OVCAR-4 ovarian
[38] = test system: KM12 colon
[39] = test system: SK-MEL-2 melanoma
[40] = test system: UACC-62 melanoma
[41] = test system: TK-10 renal
[42] = test system: COLO 205 colon
[43] = test system: MALME-3M melanoma
[44] = test system: MDA-MB-435
[45] = test system: NCI/ADR-RES ovarian
[46] = test system: HL-60(TB) leukemia
[47] = test system: K-562 leukemia
[48] = test system: U251 CNS
[49] = test system: HT29 colon
[50] = test system: HOP-62 NSCLC
[51] = test system: HCC-2998 colon
[52] = test system: PC-3 prostate
[53] = test system: NCI-H522 lung
[54] = test system: EKVX NSCLC
[55] = test system: HCT-116 colon
[56] = test system: NCI-H226 lung
[57] = test system: LOX IMVI melanoma
[58] = test system: SK-MEL-5 melanoma
[59] = test system: OVCAR-8 ovarian
[60] = test system: DMS 114 small cell lung
[61] = test system: M19-MEL melanoma
[62] = test system: LXFL 529 NSCLC
[63] = test system: KM20L2 colon
[64] = test system: DLD-1 colon
[65] = test system: HOP-18 NSCLC
[66] = test system: SNB-78 CNS
[67] = test system: XF 498 CNS

O=[N+]([O-])c1ccc(Cl)cc1C=NC12CC3CC(CC(C3)C1)C2
TGI [1]: > 100 µM | TGI [2]: > 100 µM | TGI [3]: > 100 µM | TGI [4]: > 100 µM | TGI [5]: > 100 µM | TGI [6]: > 100 µM | TGI [7]: 98.1 µM | TGI [8]: > 100 µM | TGI [9]: 97.6 µM | TGI [10]: > 100 µM | TGI [11]: > 31.6 µM | TGI [12]: > 92.6 µM | TGI [13]: > 100 µM | TGI [14]: > 100 µM | TGI [15]: > 93.8 µM | TGI [16]: > 100 µM | TGI [17]: > 100 µM | TGI [18]: 57.5 µM | TGI [19]: > 100 µM | TGI [20]: > 100 µM | TGI [21]: > 100 µM | TGI [22]: 26.4 µM | TGI [23]: > 100 µM | TGI [24]: > 86.7 µM | TGI [25]: > 100 µM | TGI [26]: > 100 µM | TGI [27]: > 100 µM | TGI [28]: > 95.2 µM | TGI [29]: 63.4 µM | TGI [30]: > 100 µM | TGI [31]: > 100 µM | TGI [32]: > 100 µM | TGI [33]: > 100 µM | TGI [34]: > 100 µM | TGI [35]: > 100 µM | TGI [36]: 35.6 µM | TGI [37]: > 100 µM | TGI [38]: > 91 µM | TGI [39]: > 100 µM | TGI [40]: > 100 µM | TGI [41]: > 100 µM | TGI [42]: 97.5 µM | TGI [43]: > 94 µM | TGI [44]: > 100 µM | TGI [45]: > 86.9 µM | TGI [46]: 15.6 µM | TGI [47]: 43 µM | TGI [48]: > 100 µM | TGI [49]: > 79.9 µM | TGI [50]: > 100 µM | TGI [51]: > 100 µM | TGI [52]: > 100 µM | TGI [53]: > 100 µM | TGI [54]: > 100 µM | TGI [55]: 62.9 µM | TGI [56]: > 100 µM | TGI [57]: > 70.3 µM | TGI [58]: > 100 µM | TGI [59]: > 100 µM

Cc1c(O)c(=O)ccn1CCO
TGI [1]: > 100 µM | TGI [2]: > 100 µM | TGI [3]: > 100 µM | TGI [4]: > 100 µM | TGI [5]: > 100 µM | TGI [60]: > 100 µM | TGI [8]: > 100 µM | TGI [9]: > 100 µM | TGI [10]: > 100 µM | TGI [11]: > 100 µM | TGI [16]: > 100 µM | TGI [17]: > 100 µM | TGI [61]: > 100 µM | TGI [62]: > 100 µM | TGI [18]: > 100 µM | TGI [19]: > 100 µM | TGI [20]: > 100 µM | TGI [63]: > 100 µM | TGI [21]: > 100 µM | TGI [22]: > 100 µM | TGI [25]: > 100 µM | TGI [26]: > 100 µM | TGI [27]: > 100 µM | TGI [28]: > 100 µM | TGI [29]: > 100 µM | TGI [30]: > 100 µM | TGI [31]: > 100 µM | TGI [33]: > 100 µM | TGI [34]: > 100 µM | TGI [64]: > 100 µM | TGI [36]: > 100 µM | TGI [37]: > 100 µM | TGI [38]: > 100 µM | TGI [39]: > 100 µM | TGI [40]: > 100 µM | TGI [41]: > 100 µM | TGI [42]: > 100 µM | TGI [43]: > 100 µM | TGI [65]: > 100 µM | TGI [46]: > 100 µM | TGI [66]: > 100 µM | TGI [47]: > 100 µM | TGI [48]: > 100 µM | TGI [49]: > 100 µM | TGI [67]: > 100 µM | TGI [50]: > 100 µM | TGI [53]: > 100 µM | TGI [54]: > 100 µM | TGI [55]: > 100 µM | TGI [56]: > 100 µM | TGI [57]: > 100 µM | TGI [58]: > 100 µM | TGI [59]: > 100 µM
